The source of these data is article PMC12715762, “Discovery of VU6052254: A Novel, Potent M1 Positive Allosteric Modulator” (ACS Chemical Neuroscience, 2025).

Each structure is given as a SMILES string. A value given as a limit tells only on which side of the number the result lay.

Data set [1] can be described thus: hepatocyte metabolite stability (monkey). The conditions noted are these: Monkey hepatocytes, 4 h incubation of the parent PAM. The data set is classed as in vitro ADME. An excerpt: (§1) However, the hepatocyte stability of 7 was far better than 1 for rat, dog, and human and was therefore poised for further advancement of compound characterization.
The nature of data set [2]: multispecies hepatocyte stability, summary across species. The data set is classed as in vitro ADME, rat, dog, monkey, human.
Description: as §1

Data set [3] in a line: hepatocyte metabolite stability (human). Type of data set: in vitro ADME. The conditions noted are these: Human hepatocytes, 4 h incubation of the parent PAM.
Description: From this exercise, a single compound emerged, harboring a tertiary hydroxyl moiety at the 7-position of the indazole, VU6052254 (henceforth PAM 7).
as §1

The conditions of data set [4]: Human Phase I; cited from earlier work.
The conditions of data set [5]: dog MTD study and high-dose rat 14-day toxicology study; result in words; cited from earlier work.
Data set [6] is described as follows: kinetic / aqueous solubility. The following applies: result in words. Type of data set: physicochemical.
For data set [7], the system named is Sprague-Dawley rats. As to the kind of experiment: CFC with scopolamine challenge. The data set is classed as in vivo, rat.

With `Cn1cc2c(-c3cc(F)c(CN4C(=O)c5cccnc5C4O)c(F)c3)cccc2n1` (stereo not shown) [compound 2], the “% Total Peak Area, oxidative metabolite (label = metabolite)” value in data set [1] was determined as 74.3%; in data set [3], 34.9%. In data set [2] (across all four species (rat, dog, monkey, human hepatocytes)), the “level of oxidative metabolite generated (label = metabolite)” value is listed as > 23%. For the same molecule, the “metabolite share of plasma AUC of total VU0467319 drug administered” value in data set [4] is given as > 50%.
Consider `[2H]C1([2H])c2ncccc2C(=O)N1Cc1c(F)cc(-c2cccc3nn(C([2H])([2H])[2H])cc23)cc1F` [compound 5], for which the “amount of oxidative metabolism at high dose” value in data set [5] is “comparable to that of VU0467319 (1)”. In data set [6], the aqueous solubility result is given as “low aqueous solubility”.
For `[2H]C1(O)c2ncccc2C(=O)N1Cc1c(F)cc(-c2cccc3nn(C([2H])([2H])[2H])cc23)cc1F` (stereo not shown) [compound 6], the “% Total Peak Area, oxidative metabolite (label = metabolite)” value in data set [1] was determined as 21%. Moreover, in data set [2] (across species except for monkey), the “level of oxidative metabolite generated (label = metabolite)” value was < 10%.
As to `CN1[C@@H]2C[C@@H](OC(=O)[C@H](CO)c3ccccc3)C[C@H]1[C@@H]1O[C@@H]12` [scopolamine], in data set [7] (0.25 mg/kg IP, rat), the “disruption of acquisition of CFC” value was ~65%. Besides, the “effect of scopolamine alone on acquisition of CFC” value in data set [7] (0.26 mg/kg as printed, result in words) is on record as “robust decrease in the acquisition of CFC”.
